Assay results published in paper PMC3114813 (Environmental Health Perspectives, 2011).
“Also recorded” adds a separate entry of the source. Where two headings read alike, the source gives them in different places.

What was measured:
[1] = system: MDA-kb2 cells; details: for Cytotoxic EC20 (μM) MDA-kb2: EC20 = concentration that produces a 20% effect
Description: (§1) MDA-kb2 cells are human breast cancer cells stably transfected with a firefly luciferase reporter gene that is driven by an androgen-response element–containing promoter ([Wilson et al. 2002]). Details of the modified assay were published previously ([Ermler et al. 2010]). Briefly, cells were seeded at a concentration of 1 × 10^5 cells/mL in phenol red–free Leibowitz-15 medium (Invitrogen Ltd., Paisley, UK) containing 10% (charcoal-stripped) fetal calf serum (Invitrogen Ltd.) in white luminometer plates and allowed to attach for 24 hr. Cells were then exposed to eight serial dilutions of selected pesticides with or without DHT (0.25 nM). After 24 hr, luciferase activity was determined with SteadyGlo assay reagent (Promega UK Ltd., Southampton, Hampshire, UK) and measured in a plate reader (FLUOstar Optima, BMG Labtech GmbH, Offenburg, Germany). […] All concentrations were tested in duplicate over two plates, and each pesticide was measured at least twice in separate experiments. For comparative purposes, luminescence was normalized to DHT alone at coexposure concentration (maximum response, 100%) and solvent-only (ethanol) controls (minimum response, 0%). […] Pesticides were initially tested over a concentration range of 0.64 nM–50 μM (5× dilutions) as a range-finding exercise. Subsequently, the concentration ranges were modified to reflect the potency and toxicity of each individual compound. […] Sixty percent of the pesticides were repeat tested using the same product but with new stock solutions and by a different experimenter.
(§2) To analyze antiandrogenic action, raw luminescence readings were normalized on a plate-by-plate basis to the means of the positive DHT controls (n = 8) and the solvent controls (n = 8) ([Ermler et al. 2010]). […] Specifically, a variety of nonlinear regression models were fitted independently to the same data set, and the best-fitting model was selected using a statistical goodness-of-fit criterion. […] Data considered to be statistically significant at p < 0.05 were analyzed using the best-fit approach as described above. All statistical analysis was performed using SAS statistical software (SAS Institute Inc., Cary, NC, USA). From the best-fitting model, we derived inhibitory concentrations for antiandrogenicity and effect concentrations for cytotoxicity.

[2] = target: T1, androgen receptor (AR) (Homo sapiens, UniProt P10275, Q868H); experiment: cell-based; details: for IC20: MDA-kb2, read-out: Antiandrogen IC20 (μM) MDA-kb2
T1 construct: MDA-kb2 cells are human breast cancer cells stably transfected with a firefly luciferase reporter gene; endogenous in cells; host or cells: MDA-kb2 (human breast cancer cells)
T1 sequence (P10275 1-920 Q868H): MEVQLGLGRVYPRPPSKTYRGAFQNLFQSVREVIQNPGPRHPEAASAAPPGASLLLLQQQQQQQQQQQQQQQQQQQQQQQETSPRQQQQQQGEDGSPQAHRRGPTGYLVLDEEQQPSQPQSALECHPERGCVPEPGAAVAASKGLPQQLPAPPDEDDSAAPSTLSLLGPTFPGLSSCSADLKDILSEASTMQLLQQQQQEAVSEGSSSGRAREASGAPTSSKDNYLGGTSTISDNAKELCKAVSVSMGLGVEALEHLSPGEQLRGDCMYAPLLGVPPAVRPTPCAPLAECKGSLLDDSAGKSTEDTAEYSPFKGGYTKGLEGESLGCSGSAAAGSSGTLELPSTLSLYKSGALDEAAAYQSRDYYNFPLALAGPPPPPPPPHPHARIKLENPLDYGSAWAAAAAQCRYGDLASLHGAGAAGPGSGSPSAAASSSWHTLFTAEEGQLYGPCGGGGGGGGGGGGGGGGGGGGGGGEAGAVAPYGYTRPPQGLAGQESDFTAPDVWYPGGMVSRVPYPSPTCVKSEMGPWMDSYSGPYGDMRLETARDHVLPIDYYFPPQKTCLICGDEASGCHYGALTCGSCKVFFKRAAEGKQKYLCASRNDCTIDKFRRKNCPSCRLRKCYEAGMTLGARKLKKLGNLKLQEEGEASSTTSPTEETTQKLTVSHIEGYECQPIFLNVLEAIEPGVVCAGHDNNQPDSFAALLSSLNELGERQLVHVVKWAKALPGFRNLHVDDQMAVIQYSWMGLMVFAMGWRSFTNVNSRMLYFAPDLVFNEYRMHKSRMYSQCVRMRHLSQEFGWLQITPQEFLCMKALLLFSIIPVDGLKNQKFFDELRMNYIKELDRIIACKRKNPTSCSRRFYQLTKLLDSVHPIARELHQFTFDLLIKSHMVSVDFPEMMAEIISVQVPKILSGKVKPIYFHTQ
Description: as §1, §2

[3] = target: T1, androgen receptor (AR); assay type: cell-based
Description: as §1, §2

[4] = system: yeast; experiment: YAS, cytotoxicity (turbidity at 620 nm); assay type: cell-based; details: for Cytotoxic EC20 (μM) YAS: EC20 = concentration that produces a 20% effect, yeast turbidity
Description: The methods for the YAS have been described previously ([Sohoni and Sumpter 1998]). Briefly, stimulation of the transfected AR causes a color change in the media, which is measured by absorbance at 540 nm (Labsystems Multiskan Multisoft, Vienna, VA, USA). Plates were also measured at 620 nm to measure cell growth (turbidity) to check for any cytotoxic effects that may have occurred. Pesticides were coincubated with DHT (6.4 nM). […] Incubation time was 53 hr at 28°C. […] Pesticide serial dilutions were tested in duplicate over two plates and were tested in two separate experiments.

[5] = total exposure score / IC20 (MDA-kb2), recalculated using experimental data
[6] = androgenic in the absence of DHT, Neg = no response was observed

Question: Which “Cytotoxic EC20 (μM) MDA-kb2” value [1] does the source give for C#CCOS(=O)OC1CCCCC1Oc1ccc(C(C)(C)C)cc1 (stereo not shown) [Propargite] here?
Answer: The value was 0.487 µM.

Question: Which “Cytotoxic EC20 (μM) MDA-kb2” value [1] does the source give for ClC(Cl)=C(c1ccc(Cl)cc1)c1ccc(Cl)cc1 [p,p′-DDE, p,p′-1,1-bis-(4-chlorophenyl)-2,2-dichloroethene] here?
Answer: Its value is > 50 µM.

Question: With CC(C)OC(=O)C(O)(c1ccc(Br)cc1)c1ccc(Br)cc1 [Bromopropylate] as the compound, how does the IC20 [2] read?
Answer: Its IC20 is 0.54 µM.

Question: And the “Antiandrogenic activity in the MDA-kb2 assay (in words)” value ([2]; MDA-kb2 / 'our assay')?
Answer: The value was “in vitro AR antagonists”.

Question: And the “ERR (environmental relevance ratio)” value [2, 5]?
Answer: Its value is 24.1.

Question: And the “Cytotoxic EC20 (μM) MDA-kb2” value [1]?
Answer: Its value is 27.2 µM.

Question: What about the “Androgen EC20 (μM) MDA-kb2” value [3, 6] of the same compound?
Answer: Its value is “Neg”.

Question: What does the source list for O=S1OCC2C(CO1)C1(Cl)C(Cl)=C(Cl)C2(Cl)C1(Cl)Cl (stereo not shown) [Endosulfan]?
Answer: Antiandrogenic activity in the MDA-kb2 assay (in words) [2]: in vitro AR antagonists; ERR (environmental relevance ratio) [2]: 3.1; IC20 [2]: 6.05 µM; Cytotoxic EC20 (μM) MDA-kb2 [1]: 33.8 µM; Androgen EC20 (μM) MDA-kb2 [3]: Neg

Question: Which results are given for Cc1c(COC(=O)[C@@H]2[C@H](/C=C(\Cl)C(F)(F)F)C2(C)C)cccc1-c1ccccc1 (racemic) [Bifenthrin]?
Answer: Cytotoxicity in the MDA-kb2 assay (in words) [1]: cytotoxic; Cytotoxic EC20 (μM) MDA-kb2 [1]: 22.2 µM; Cytotoxic EC20 (μM) YAS [4]: > 200 µM

Question: For COC(=O)N(OC)c1ccccc1COc1ccn(-c2ccc(Cl)cc2)n1 [Pyraclostrobin], which “Cytotoxic EC20 (μM) MDA-kb2” value [1] is on record?
Answer: Its value is 0.089 µM.

Question: How did the “Cytotoxic EC20 (μM) MDA-kb2” value [1] turn out when Cc1cc(C)nc(Nc2ccccc2)n1 [Pyrimethanil] was run?
Answer: The value was > 125 µM.

Question: And the “Cytotoxic EC20 (μM) YAS” value [4]?
Answer: The value was 167 µM.

Question: And the “Cytotoxicity in the YAS assay (in words)” value [4]?
Answer: Its value is “cytotoxic”.

Question: For CCOC(=O)OC1=C(c2cc(C)ccc2C)C(=O)N[C@]12CC[C@@H](OC)CC2 [Spirotetramat], which “Cytotoxic EC20 (μM) MDA-kb2” value [1] is on record?
Answer: The value was > 50 µM.

Question: C#CCOc1ccc(CCNC(=O)C(OCC#C)c2ccc(Cl)cc2)cc1OC (stereo not shown) [Mandipropamid] was tested. Which “Antiandrogen IC20 (μM) MDA-kb2” value [2] did it give?
Answer: Its value is “Neg”.

Question: What about the “Cytotoxic EC20 (μM) MDA-kb2” value [1] of the same compound?
Answer: The value was 8.92 µM.

Question: And the “Androgen EC20 (μM) MDA-kb2” value [3, 6]?
Answer: Its value is “Neg”.

Question: Which “Cytotoxic EC20 (μM) MDA-kb2” value [1] does the source give for Cc1cc(C2CC2)nc(Nc2ccccc2)n1 [Cyprodinil] here?
Answer: Its value is > 50 µM.

Question: Which IC20 [2] does the source give for CNC(=O)Oc1cc(C)c(SC)c(C)c1 [Methiocarb] here?
Answer: Its IC20 is 6.82 µM.

Question: What about the “ERR (environmental relevance ratio)” value [2, 5] of the same compound?
Answer: The value was 2.5.

Question: What about the “Cytotoxic EC20 (μM) MDA-kb2” value [1] of the same compound?
Answer: The value was > 46 µM.

Question: What about the “Androgen EC20 (μM) MDA-kb2” value [3, 6] of the same compound?
Answer: The value was “Neg”.

Question: For O=C(NC(=O)c1c(F)cccc1F)Nc1ccc(OC(F)(F)C(F)OC(F)(F)F)c(Cl)c1 (stereo not shown) [Novaluron], which “Cytotoxic EC20 (μM) MDA-kb2” value [1] is on record?
Answer: Its value is > 50 µM.

Question: Which results are given for Spinosad?
Answer: Antiandrogen IC20 (μM) MDA-kb2 [2]: Neg; Cytotoxic EC20 (μM) MDA-kb2 [1]: 13.1 µM; Androgen EC20 (μM) MDA-kb2 [3, 6]: Neg

Question: With CC(C)OC(=O)Nc1cccc(Cl)c1 [Chlorpropham] as the compound, how does the “Cytotoxic EC20 (μM) MDA-kb2” value [1] read?
Answer: The value was > 50 µM.

Question: And the “Cytotoxic EC20 (μM) YAS” value [4]?
Answer: The value was > 40 µM.

Question: For COC(=O)N(C(=O)N1CO[C@@]2(C(=O)OC)Cc3cc(Cl)ccc3C2=N1)c1ccc(OC(F)(F)F)cc1 [Indoxacarb], which “Antiandrogen IC20 (μM) MDA-kb2” value [2] is on record?
Answer: Its value is “Neg”.

Question: And the “Cytotoxic EC20 (μM) MDA-kb2” value [1]?
Answer: The value was 11.3 µM.

Question: What about the “Androgen EC20 (μM) MDA-kb2” value [3, 6] of the same compound?
Answer: Its value is “Neg”.

Question: With CCCSP(=O)(OCC)Oc1ccc(Br)cc1Cl (stereo not shown) [Profenofos] as the compound, how does the “Cytotoxic EC20 (μM) MDA-kb2” value [1] read?
Answer: Its value is 8.61 µM.

Question: How did the “Cytotoxic EC20 (μM) MDA-kb2” value [1] turn out when C=CC1(C)OC(=O)N(c2cc(Cl)cc(Cl)c2)C1=O (stereo not shown) [Vinclozolin] was run?
Answer: The value was > 50 µM.

Question: Which results are given for CO/C=C(/C(=O)OC)c1ccccc1Oc1cc(Oc2ccccc2C#N)ncn1 [Azoxystrobin]?
Answer: Antiandrogen IC20 (μM) MDA-kb2 [2]: Neg; Cytotoxic EC20 (μM) MDA-kb2 [1]: 2.9 µM; Androgen EC20 (μM) MDA-kb2 [3, 6]: Neg

Question: How did the “Cytotoxicity in the MDA-kb2 assay (in words)” value [1] turn out when CC(C)C(=O)Nc1ccc([N+](=O)[O-])c(C(F)(F)F)c1 [flutamide, reference compound] was run?
Answer: The value was “overlap of toxic effects on the cells with antiandrogenic activity”.

Question: Which “Cytotoxic EC20 (μM) MDA-kb2” value [1] does the source give for COP(=S)(OC)Oc1ccc([N+](=O)[O-])c(C)c1 [Fenitrothion] here?
Answer: Its value is > 50 µM.

Question: With Fc1ccc(Oc2ccnc3cc(Cl)cc(Cl)c23)cc1 [Quinoxyfen] as the compound, how does the “Cytotoxic EC20 (μM) MDA-kb2” value [1] read?
Answer: Its value is 10.1 µM.

Question: What about the “Cytotoxic EC20 (μM) YAS” value [4] of the same compound?
Answer: Its value is > 75 µM.

Question: How did the “Cytotoxic EC20 (μM) MDA-kb2” value [1] turn out when CCCN(CC)CC1COC2(CCC(C(C)(C)C)CC2)O1 (stereo not shown) [Spiroxamine] was run?
Answer: Its value is 9.29 µM.

Question: Which “Cytotoxic EC20 (μM) MDA-kb2” value [1] does the source give for OC(c1ccc(Cl)cc1)(c1ccc(Cl)cc1)C(Cl)(Cl)Cl [Dicofol] here?
Answer: Its value is 29.0 µM.

Question: How did the “Cytotoxic EC20 (μM) MDA-kb2” value [1] turn out when CC1COC(Cn2cncn2)(c2ccc(Oc3ccc(Cl)cc3)cc2Cl)O1 (stereo not shown) [Difenoconazole] was run?
Answer: The value was 2.91 µM.

Question: And the “Cytotoxic EC20 (μM) YAS” value [4]?
Answer: Its value is 0.109 µM.

Question: And the “Cytotoxicity in the YAS assay (in words)” value [4]?
Answer: The value was “cytotoxic”.

Question: With Oc1ccccc1-c1ccccc1 [O-Phenylphenol] as the compound, how does the “Cytotoxic EC20 (μM) MDA-kb2” value [1] read?
Answer: Its value is > 50 µM.

Question: Which “Cytotoxic EC20 (μM) MDA-kb2” value [1] does the source give for CC1(C)C(/C=C(\Cl)C(F)(F)F)C1C(=O)OC(C#N)c1cccc(Oc2ccccc2)c1 (stereo not shown) [λ-Cyhalothrin] here?
Answer: The value was 51.4 µM.

Question: What about the “Cytotoxic EC20 (μM) YAS” value [4] of the same compound?
Answer: Its value is > 200 µM.

Question: What does the source list for COP(=S)(OC)SCn1nnc2ccccc2c1=O [Azinphos-methyl]?
Answer: Antiandrogenic activity in the MDA-kb2 assay (in words) ([2]; MDA-kb2 / 'our assay'): antiandrogenic; also recorded: in vitro AR antagonists; Cytotoxic EC20 (μM) MDA-kb2 [1]: 33.9 µM; Cytotoxic EC20 (μM) YAS [4]: > 150 µM; Androgen EC20 (μM) MDA-kb2 [3, 6]: Neg
